Measured values from patent US20110059983A1, “USE OF SUBSTITUTED OXINDOLE DERIVATIVES FOR THE TREATMENT AND PROPHYLAXIS OF PAIN” (Abbott GmbH & Co. KG, priority 2009, published 2011).

System: Chung model (spinal nerve ligation rats)
Experiment: Tactile allodynia test after spinal nerve ligation (SNL, Chung model)
Assay type: in vivo, rat
Details: 3, 10 and 30 mg/kg po in saline, administered 1 hour prior to the tactile allodynic test
Source text: SNL surgery: For spinal nerve ligation surgery, rats were anesthetized with isoflurane gas. […] The hair at the surgical site was clipped and disinfected with alcohol and betadine. Body temperature was maintained during surgery by using a heating pad. A skin incision (approximately 3 cm) was made on the dorsal midline, using the level of the iliac crests as the midpoint of the incision. At the mid-sacral region, on the left side of the vertebral column (in the sagittal plane), a #15 scalpel blade was used to cut the muscles close to the vertebral body until the blade hits the sacrum bone. A retractor system was used to expose the area from the sacro-iliac rim to about 2 cm of the lateral vertebral column. Using rongeurs, the facet joint was removed followed by the L6 transverse process. A glass hook was used to isolate and tightly ligate L5 and L6 with 6-0 silk suture. The muscle was then sutured using 4-0 silk suture. The skin was closed using wound clips.
Tactile allodynia test: The rats were placed on testing stands with screens under their feet. von Frey filaments eliciting various forces (up to 15 g) were applied to the paws, starting with a filament of 4.31 g and proceeding with alternating lighter and heavier filaments. The measured variable is the 50% withdrawal threshold (PWT) and is calculated from the up-down formula in Chaplan et al. 1994.

CCOc1ncccc1C1(NC(=O)N2CCN(C3CCN(C)CC3)CC2)C(=O)N(S(=O)(=O)c2ccc(OC)cc2OC)c2ccc(Cl)cc21 (stereo not shown) [compound 1]
50% paw withdrawal threshold (PWT): dose-dependently increased the withdrawal threshold
